In general, Kd refers to the equilibrium constant for the complex coming apart. Low readings indicate a tighter complex, high ones a looser complex. Broadly, the stoichiometry N is a count of units in the complex or per binding partner.

Assay [1] concerns the target T1, VSGsur (Variant Surface Glycoprotein VSGsur) (Trypanosoma brucei, UniProt A0A291L8F4).
T1 sequence (A0A291L8F4 30-408): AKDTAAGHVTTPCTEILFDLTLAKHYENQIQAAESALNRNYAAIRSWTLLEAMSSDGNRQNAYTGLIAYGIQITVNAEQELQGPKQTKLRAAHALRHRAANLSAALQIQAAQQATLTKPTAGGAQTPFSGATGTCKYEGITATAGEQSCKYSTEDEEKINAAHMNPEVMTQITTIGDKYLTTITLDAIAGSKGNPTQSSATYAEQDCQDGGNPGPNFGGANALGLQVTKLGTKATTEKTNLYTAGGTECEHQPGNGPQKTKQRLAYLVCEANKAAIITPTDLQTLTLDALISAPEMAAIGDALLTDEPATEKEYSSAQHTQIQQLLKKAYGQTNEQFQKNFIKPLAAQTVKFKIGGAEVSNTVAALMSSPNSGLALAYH
Description: crystal structure. The assay is classed as binding.

Assay [2] addresses T2, VSGsur (Variant Surface Glycoprotein VSGsur) (Trypanosoma brucei, UniProt A0A291L8F4).
T2 sequence (A0A291L8F4 30-475): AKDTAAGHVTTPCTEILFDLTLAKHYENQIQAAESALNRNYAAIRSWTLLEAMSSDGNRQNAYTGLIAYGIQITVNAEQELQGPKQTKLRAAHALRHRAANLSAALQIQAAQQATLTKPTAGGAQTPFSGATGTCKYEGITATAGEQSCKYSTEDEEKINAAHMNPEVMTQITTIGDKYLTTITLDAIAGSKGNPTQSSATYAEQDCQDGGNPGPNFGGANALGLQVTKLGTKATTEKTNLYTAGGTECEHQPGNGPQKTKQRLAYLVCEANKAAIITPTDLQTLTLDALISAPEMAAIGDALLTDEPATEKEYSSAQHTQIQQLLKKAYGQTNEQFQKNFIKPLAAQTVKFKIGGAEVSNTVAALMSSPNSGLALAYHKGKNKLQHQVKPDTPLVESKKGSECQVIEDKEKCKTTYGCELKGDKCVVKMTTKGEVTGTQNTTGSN
In words: ITC and […] Å co-crystal structure. The assay is classed as binding.

The target of assay [3] is Variant Surface Glycoprotein VSG13, N-terminal domain (T. brucei brucei Lister 427). In words: crystal structure.
Assay [4] addresses Variant Surface Glycoprotein VSGsur, N-terminal domain (T. brucei rhodesiense). In words: crystal structure.

Turning to `Nc1c(I)c(C(=O)O)c(I)c(C(=O)O)c1I` [I3C, 5-amino-2,4,6-triiodoisophthalic acid], the “crystal structure (50 mM overnight soak, phasing compound)” value in assay [1] is reported as “occupies the same position as the suramin benzene groups, stacking similarly with H122”.
`Cc1ccc(C(=O)Nc2ccc(S(=O)(=O)O)c3cc(S(=O)(=O)O)cc(S(=O)(=O)O)c23)cc1NC(=O)c1cccc(NC(=O)Nc2cccc(C(=O)Nc3cc(C(=O)Nc4ccc(S(=O)(=O)O)c5cc(S(=O)(=O)O)cc(S(=O)(=O)O)c45)ccc3C)c2)c1` [suramin]: the Kd in assay [2] came to 234 ± 28 nM.
Consider “Variant Surface Glycoprotein VSG13, N-terminal domain (domain or fragment)”, for which the stoichiometry N in assay [3] stood at 2.
Regarding “Variant Surface Glycoprotein VSGsur, N-terminal domain (domain or fragment)”, in assay [4], the stoichiometry N came out at 2.

The values are drawn from article PMC7116837 (Nature microbiology, 2021).
